Key:
[1] = system: CHO; test: MTT assay, normal cell line; type: cell-based, Chinese hamster; conditions: Cricetulus griseus, 72 h incubation, mean ± SD of three experiments
Experimental: (§1) The 3-(4,5-dimethylthiazol-2-yl)-2,5-diphenyltetrazolium bromide (MTT) assay was used to determine the sensitivity of the different CRC cells to the novel silybin derivatives (Hussein et al., [2017]; Manivannan et al., [2017]). The cells were seeded at a density of 4,000–5,000 cells/well in 96 well plates and incubated with serial dilutions of the compounds (0, 0.1, 0.3, 1, 3, 10, 30, and 100 μM). The MTT dye (4 mg/ml) was added after 72 h of incubation and incubated with the cells for an additional 4 h at 37°C. Following incubation, the media was discarded and the formazan crystals were dissolved by adding 100 μL of DMSO to each well. A DTX 880 multimode detector (Beckman Coulter Life, Indianapolis IN, USA) was used to determine the absorbance readings at a wavelength of 570 nm. The IC50 values were determined based on 3 separate experiments, with each experiment done in triplicate. The selectivity of the compounds was determined by comparing their cytotoxicity for CRC to normal epithelial cell lines (CHO, and CRL1459).

[2] = system: HCT116; test: MTT assay; type: cell-based, human; conditions: for IC50: Homo sapiens, HCT-116, MTT, 72 h incubation, mean ± SD of three experiments, read-out: IC50 ± SD, Colon HCT116
Experimental: as §1

[3] = system: CRL-1459; test: MTT assay, normal cell line; type: cell-based; conditions: 72 h incubation, mean ± SD of three experiments
Experimental: as §1

[4] = system: LOVO; test: MTT assay; type: cell-based; conditions: Homo sapiens, 72 h incubation, mean ± SD of three experiments, read-out: IC50 ± SD, Colon LOVO
Experimental: as §1

[5] = system: S1; test: MTT assay; type: cell-based; conditions: Homo sapiens, 72 h incubation, mean ± SD of three experiments, read-out: IC50 ± SD, Colon S1
Experimental: as §1

[6] = system: CRC cell lines (HCT116, LOVO, and S1); test: MTT assay, CRC cell lines together; type: cell-based, human
Experimental: as §1

[7] = system: HCT116; test: Cell cycle analysis (PI, flow cytometry); type: cell-based, human; conditions: 0, 2 or 4 μM, 12 h, data not shown
Experimental: Cell cycle analysis was performed as described previously (Pozarowski and Darzynkiewicz, [2004]). Briefly, a 6 well plate was used for the seeding of HCT116 at 1 × 10^6 cells/well. The next day, 15j and 15k (0, 2, or 4 μM) were added and incubated with the seeded cells. After 12 h, the cells were trypsinzed with 0.25% trypsin, 2.21 mM EDTA, 1X, washed, counted and resuspended in 0.5 ml of ice cold PBS. PI stain was added to each suspension for at least 15 min to stain the DNA. The cell cycle analysis and cell distribution for each phase was measured using a BD Accuri™ C6 flow cytometer (BD Biosciences, Becton-Dickinson, San Jose, CA, USA) and analyzed using FCS express 5 plus De Novo software (Glendale, CA, USA).

[8] = system: HCT116 cells; test: CellTiter-Glo luminescent assay (ATP content); type: cell-based; conditions: Homo sapiens, HCT-116, data not shown, read-out: IC50, ATP depletion
Experimental: Subsequently, we conducted experiments to determine if compound 15k produced a time-dependent effect on cell death. […] The HCT116 cells had intense fluorescence over time compared to the cells incubated with vehicle, with a significant difference in the number of dead cells after 24 h of incubation with 2 μM of 15k. […] The cytotoxicity of 15k and 15j in HCT116 cells were further determined using a more homogeneous CellTiter-Glo® luminescent cell based assay that measures the ATP content in the metabolically active cells.

[9] = system: HCT116 cells; test: MitoTracker Red / Alexa Fluor 488 annexin V flow cytometry; type: cell-based, human; conditions: 2 or 4 μM, p < 0.001 vs control, data not shown
Experimental: The mitochondrial membrane potential and the induction of apoptosis were analyzed in HCT116 cells using the MitoTracker Red and Alexa Fluor 488 annexin V kits for flow cytometry as previously described (Karthikeyan et al., [2015]). Six well plates were used for seeding of cells, followed by incubation with 15j or 15k (0, 1, 2, and 4μM) for overnight. Subsequently, the cells were harvested, counted and 4 μl of a 10μM working solution of MitoTracker Red was added to each 1 ml cell suspension, followed by 30 min of incubation at 37°C with 5% CO2. The cells were resuspended in 100 μl of annexin binding buffer and 5 μl of Alexa Fluor 488 annexin V was added to the suspension and incubated for 15 min. Finally, 400 μl of annexin-binding buffer was added and the stained cells were detected by flow cytometry. The fluorescence emission at 530 and 585 nm was measured using a BD Accuri™ C6 flow cytometer and analyzed using FCS express 5 plus De Novo software.

[10] = system: LOVO cells; test: Wound healing assay; type: cell-based, human; conditions: 2 and 4 μM, 24 h and 48 h, vs vehicle
Experimental: In brief, the metastatic CRC cells (LOVO) were seeded in 6 well plates and allowed to grow as a monolayer until they reached 100% confluence. Upon confluence, 200 μl sterile tips were used to create a wound by gentle scratching of the complete cell monolayer. Sterile PBS was used to wash the cells several times to remove any floating cells. Different concentrations of the test compound were prepared in the culture media and added immediately after wound formation. The closure of the wound was observed by taking pictures at different time points by an EVOS microscope. Finally, the area of the wounds at different time points was calculated using Image J software (NIH, Bethesda, Maryland, USA).

[11] = system: HCT116 cells; test: Colony formation assay; type: cell-based, human; conditions: 2 and 4 μM, 12 h incubation, colonies 10–14 days, vs vehicle control
Experimental: In this assay, HCT116 cells were seeded in 6 well plates at a density of 250,000 cells/plate and allowed to grow overnight. Compounds 15j and 15k (0, 2 or 4 μM) were added the following day. After 12 h of incubation, the medium was discarded and cells were trypsinized with 0.25% trypsin, 2.21 mM EDTA, 1X, harvested, counted and reseeded in 6 well plates at a low density (500 cell/well). The cells were allowed to form colonies for 10–14 days at 37°C, with the medium being changed every other day. Subsequently, methanol was used to fix the colonies formed in each plate, followed by dyeing the colonies with 0.1% crystal violet dye for 30 min. Finally, colonies were viewed and counted under an EVOS microscope (Themo Fisher Scientific, Wayne, MI, USA). The colony formation rate equation was applied for each compound: Colony formation rate = number of colonies/number of seeded cells × 100 %.

[12] = system: COLO 205 cell line; test: Transwell migration assay; type: cell-based; conditions: 2 and 4 μM, data not shown
Experimental: (§2) The effect of compound 15k on the invasiveness of LOVO was tested using 24 trans-well inserts with an […]. The addition of the insert to the well forms two chambers (upper and lower), where the upper chamber was used to grow the cells on the porous membrane. The lower chamber was filled with 600 μl of cell-free DMEM medium. A 200 μl of cell suspension was added to each insert and allowed to attach for 1 h. The test compound was added in different concentrations and incubated with the cells for 24 h. […] Finally, the remaining migrated cells were fixed by methanol and dyed with 0.1% crystal violet dye and observed with an EVOS microscope. The number of migrated cells was counted and compared between the treated and control cells.
The development of cancer metastasis is dependent on the migration and invasive properties of cancerous cells (van Zijl et al., [2011]). The wound healing and transwell migration assays were used with LOVO cells, as a model for metastatic CRC as it is characterized by a high level of invasiveness (Fan et al., [2015]). The wound healing assay is a well-established method to detect and analyze cell migration potential (Liang et al., [2007]). […] The effect of compound 15k on the invasiveness of COLO 205 cell line was also measured using trans-well migration assay. […] 15j also reversed cell migration and metastasis at different concentrations.

[13] = system: LOVO cells; test: Transwell migration assay; type: cell-based, human; conditions: 2 and 4 μM, 24 h, vs vehicle
Experimental: as §2

IC50 [2]	IC50 [4]	IC50 [8]	Compound	IC50 [1]	IC50 [3]	IC50 [5]	fold more efficacious than compound 15c ([2]; from MTT IC50, cell line not given)	fold more efficacious than compound 15c in LOVO and S1 cells ([6]; from MTT IC50, LOVO and S1)	effect on the cell cycle [7]	selectivity, CRC cells compared to normal cells ([6]; MTT, vs CRL1459 and CHO)	mitochondrial membrane potential and apoptosis [9]	cell migration, wound closure [10]	colony formation rate [11]	trans-well migration [12]	number of cells migrated through transwell [13]
6.4 ± 0.2 µM	11.5 ± 0.8 µM		O=C(/C=C/c1cccc(OCc2ccccc2)c1)c1ccccc1 [Compound 15a]	22 ± 1.7 µM	7.8 ± 1 µM	2.8 ± 0.5 µM									
12.7 ± 1.4 µM	36.5 ± 1.5 µM		O=C(/C=C/c1cccc(OCc2ccccc2)c1)c1ccc(Cl)cc1 [Compound 15b]	43.6 ± 1.9 µM	12.8 ± 2.1 µM	9.5 ± 1.4 µM									
9 ± 1.1 µM	6.7 ± 2.2 µM		O=C(/C=C/c1cccc(OCc2ccccc2)c1)c1ccc(Cl)cc1Cl [Compound 15c]	27.5 ± 1.2 µM	7.8 ± 1.1 µM	6.9 ± 1.1 µM									
44.7 ± 3.1 µM	11.8 ± 3.5 µM		COc1ccc(C(=O)/C=C/c2cccc(OCc3ccccc3)c2)cc1 [Compound 15f]	22.9 ± 0.3 µM	25.4 ± 1.9 µM	23.4 ± 2.4 µM									
1 ± 0.2 µM	1.8 ± 0.4 µM	0.69 µM	O=C(/C=C/c1cccc(OCc2ccccc2)c1)c1ccc(Br)cc1 [Compound 15j]	9 ± 0.5 µM	5.4 ± 1 µM	2.4 ± 0.7 µM			significantly increased the level of cells in the sub G1 phase	selectively cytotoxic	significant reduction in membrane potential and increase in the number of cells undergoing apoptosis	migrated significantly slower	significantly decreased colony formation rate	significantly reduced the trans-well migration	significantly reduced the trans-well migration

The remaining lines, values behind:

Compound	IC50 [2]	IC50 [4]	IC50 [8]	IC50 [1]	IC50 [3]	IC50 [5]	fold more efficacious than compound 15c ([2]; from MTT IC50, cell line not given)	fold more efficacious than compound 15c in LOVO and S1 cells ([6]; from MTT IC50, LOVO and S1)	effect on the cell cycle [7]	selectivity, CRC cells compared to normal cells ([6]; MTT, vs CRL1459 and CHO)	mitochondrial membrane potential and apoptosis [9]	cell migration, wound closure [10]	colony formation rate [11]	trans-well migration [12]	number of cells migrated through transwell [13]
O=C(/C=C/c1cccc(OCc2ccccc2)c1)c1ccc([N+](=O)[O-])cc1 [Compound 15d]	22.7 ± 4.2 µM	36.3 ± 9.1 µM		82.4 ± 1.7 µM	26 ± 1.6 µM	9 ± 1.2 µM									
Cc1ccc(C(=O)/C=C/c2cccc(OCc3ccccc3)c2)cc1 [Compound 15e]	16.5 ± 3.1 µM	36.5 ± 1.3 µM		26.4 ± 0.9 µM	19.8 ± 1.3 µM	22.4 ± 1.9 µM									
O=C(/C=C/c1cccc(OCc2ccccc2)c1)c1ccc(Cl)c(Cl)c1Cl [Compound 15g]	0.4 µM	2.4 ± 0.4 µM		8.6 ± 0.9 µM	2.5 ± 0.2 µM	2.3 ± 0.7 µM	22 fold	three-fold							
O=C(/C=C/c1cccc(OCc2ccccc2)c1)c1ccccc1Br [Compound 15h]	0.7 ± 0.2 µM	1.9 ± 0.3 µM		9.1 ± 0.2 µM	2.4 ± 0.9 µM	1.9 ± 0.5 µM									
O=C(/C=C/c1cccc(OCc2ccccc2)c1)c1cccc(Br)c1 [Compound 15i]	1.9 ± 0.1 µM	7.5 ± 0.9 µM		9.2 ± 0.4 µM	7.2 ± 0.9 µM	6.2 ± 1.9 µM									
